Assay results as given in ChEMBL document CHEMBL1144064, “Biological evaluation of proanthocyanidin dimers and related polyphenols” (J Nat Prod, 1999).
Values after ≈ are worked out from the molar mass of the structure shown. Active and inactive are the calls of the source. The calls are words filed in the database; no cut-off is given here.

Experiments:
[1] = Antioxidant activity assessed as superoxide radical anion scavenging activity; format: functional
Simplexvirus = assay: Antiviral activity against HSV up to 200 ug/mL by extracellular virucidal assay; format: functional, organism-based
[2] = Cytotoxicity against human MT4 cells by MTT assay; format: cell-based
[3] = Selectivity index, ratio of CC50 for human MT4 cells to IC50 for HIV infected in human MT4 cells; format: functional
[4] = system: Human immunodeficiency virus; assay: Antiviral activity against HIV infected in human MT4 cells assessed as inhibition of virus-induced cytopathic effect by MTT assay; format: functional, organism-based; conditions: Human immunodeficiency virus 1, MT4
Klebsiella pneumoniae = assay: Antimicrobial activity against Klebsiella pneumoniae; format: functional
Proteus vulgaris = assay: Antimicrobial activity against Proteus vulgaris; format: functional
Candida albicans = assay: Antimicrobial activity against Candida albicans; format: functional
Staphylococcus aureus = assay: Antimicrobial activity against Staphylococcus aureus; format: functional
[5] = system: Mycolicibacterium fortuitum; assay: Antimicrobial activity against Mycobacterium fortuitum; format: functional
Enterobacter cloacae = assay: Antimicrobial activity against Enterobacter cloacae; format: functional
Salmonella paratyphi = assay: Antimicrobial activity against Salmonella paratyphi; format: functional, Salmonella enterica subsp. enterica serovar Paratyphi A; conditions: Salmonella enterica
Pseudomonas aeruginosa = assay: Antimicrobial activity against Pseudomonas aeruginosa; format: functional
Escherichia coli = assay: Antimicrobial activity against Escherichia coli; format: functional
[6] = Modulation of classical complement pathway system assessed as hemoglobin release by spectrophotometry
[7] = Modulation of alternative complement pathway system assessed as hemoglobin release by spectrophotometry
Bacillus cereus = assay: Antimicrobial activity against Bacillus cereus; format: functional
Streptococcus pyogenes = assay: Antimicrobial activity against Streptococcus pyogenes; format: functional

SMILES	IC50 [1] [µM]	Activity (Simplexvirus)	CC50 [2] [mg/L]	Ratio CC50/IC50 [3]	IC50 [4] [mg/L]	MBC (Candida albicans) [mg/L]	MIC (Candida albicans) [mg/L]	MBC (Staphylococcus aureus) [mg/L]	MIC (Staphylococcus aureus) [mg/L]	MBC [5] [mg/L]	MIC [5] [mg/L]	MBC (Enterobacter cloacae) [mg/L]	MIC (Enterobacter cloacae) [mg/L]	MBC (Salmonella paratyphi) [mg/L]	MIC (Salmonella paratyphi) [mg/L]	MBC (Pseudomonas aeruginosa) [mg/L]	MIC (Pseudomonas aeruginosa) [mg/L]	MBC (Escherichia coli) [mg/L]	MIC (Escherichia coli) [mg/L]	IC50 [6] [µM]	further results
Oc1cc(O)c2c(c1)O[C@H](c1cc(O)c(O)c(O)c1)[C@H](O)C2 [EPIGALLOCATECHIN]	3.4	inactive	16.1 (≈ 52.6 µM)	<1	> 16.1	> 100	> 100	> 100	> 100	> 100	> 100	> 100	> 100	> 100	> 100	> 100	> 100	> 100	> 100	19.6	MBC (Klebsiella pneumoniae): 100 mg/L (≈ 327 µM); MIC (Klebsiella pneumoniae): 100 mg/L (≈ 327 µM); MBC (Proteus vulgaris): 100 mg/L (≈ 327 µM); MIC (Proteus vulgaris): 50 mg/L (≈ 163 µM); IC50 [7]: 179 µM
Oc1cc(O)c2c(c1)O[C@@]1(c3ccc(O)c(O)c3)Oc3cc(O)c4c(c3[C@@H]2[C@H]1O)O[C@H](c1ccc(O)c(O)c1)[C@@H](O)C4 [PROANTHOCYANIDIN A1]	14.7	inactive	144 (≈ 250 µM)	10	14 (≈ 24.3 µM)	> 100	> 100	> 100	> 100	> 100	> 100	> 100	> 100	> 100	> 100	> 100	> 100	> 100	> 100	57.1	MIC (Proteus vulgaris): 50 mg/L (≈ 86.7 µM); IC50 [7]: 105 µM
Oc1cc(O)c2c(c1)O[C@@]1(c3ccc(O)c(O)c3)Oc3cc(O)c4c(c3[C@@H]2[C@H]1O)O[C@H](c1ccc(O)c(O)c1)[C@H](O)C4 [PROANTHOCYANIDIN A2]	17.8	inactive	138 (≈ 239 µM)	24	5.8 (≈ 10.1 µM)	> 100	> 100	> 100	> 100	> 100	> 100	> 100	> 100	> 100	> 100	> 100	> 100	> 100	> 100	11.6	MIC (Bacillus cereus): 100 mg/L (≈ 173 µM); MBC (Streptococcus pyogenes): 50 mg/L (≈ 86.7 µM); MIC (Streptococcus pyogenes): 50 mg/L (≈ 86.7 µM); IC50 [7]: 113 µM
Oc1cc(O)c2c(c1)O[C@H](c1ccc(O)c(O)c1)[C@H](O)[C@H]2c1c(O)cc(O)c2c1O[C@H](c1ccc(O)c(O)c1)[C@H](O)C2 [PROCYANIDIN B2]	10.5	inactive	135 (≈ 234 µM)	8	17.2 (≈ 29.7 µM)	> 100	> 100	> 100	> 100	> 100	> 100	> 100	> 100	> 100	> 100	> 100	> 100	> 100	> 100	58	MBC (Streptococcus pyogenes): 100 mg/L (≈ 173 µM); MIC (Streptococcus pyogenes): 100 mg/L (≈ 173 µM); Activity [7]: inactive
Oc1cc(O)c2c(c1)O[C@H](c1ccc(O)c(O)c1)[C@H](O)[C@H]2c1c(O)cc(O)c2c1O[C@H](c1ccc(O)c(O)c1)[C@H](O)[C@H]2c1c(O)cc(O)c2c1O[C@H](c1ccc(O)c(O)c1)[C@H](O)C2 [PROCYANIDIN C1]	10.7	inactive	16.5 (≈ 19 µM)	5	4.3 (≈ 4.96 µM)	> 100	> 100	> 100	> 100	> 100	> 100	> 100	> 100	> 100	> 100	> 100	> 100	> 100	> 100	6	MBC (Streptococcus pyogenes): 100 mg/L (≈ 115 µM); MIC (Streptococcus pyogenes): 100 mg/L (≈ 115 µM); IC50 [7]: 85.5 µM
